# System: Crude diglycosidase
# Assay: Examination of pH in the conversion into isoflavone aglycons by diglycosidase using soybean materials
# Format: biochemical, Penicillium multicolor IAM7153
# Set-up: Decomposition efficiency of genistin family in soymilk / Decomposition efficiency of genistin family in defatted soybean / Decomposition efficiency of daidzin family in defatted soybean: concentration or dose not given beside the values
# Conditions: for Decomposition efficiency of daidzin family in roasted soy flour: 55° C.
# Procedure: A substrate solution of 450 μL was prepared by suspending 50 mg of each soybean material (roasted soy flour (manufactured by Fuji Shokuryo K.K.), soymilk (manufactured by Gitoh Shokuhin K.K.), defatted soybean (manufactured by Fuji Seiyu K.K.), concentrated soybean protein (manufactured by Fuji Seiyu K.K.)), and adjusting the pH to 2 to 11 with hydrochloric acid or sodium hydroxide. Each enzyme solution of pH 2–11 wherein diglycosidase activity of crude diglycosidase was adjusted to 1.88 AU/mL was added thereto in an amount of 50 μL and the whole was reacted at 55° C. at the total volume of 500 μL. To the reaction mixture was added 700 μL of ethanol after 0, 1, 3, and 6 hours of the reaction. After stirring and ultrasonication, the mixture was subjected to centrifugal separation at 15,000 rpm and 4° C. for 10 minutes. The supernatant was filtered through a filter and the existence of isoflavone glycosides and aglycon isoflavones contained in the reaction mixture was detected by HLPC (Tables 15 to 26).
# [1] = pH4.8, heat treatment of enzyme: no, reaction time 0 h
# [2] = pH4.8, heat treatment of enzyme: no, reaction time 1 h
# [3] = pH4.8, heat treatment of enzyme: no, reaction time 3 h
# [4] = pH4.8, heat treatment of enzyme: no, reaction time 6 h
# [5] = pH4.8, heat treatment of enzyme: yes, reaction time 6 h
compound,measurement,setting,value
"O=C(O)CC(=O)OC[C@H]1O[C@@H](Oc2ccc3c(=O)c(-c4ccc(O)cc4)coc3c2)[C@H](O)[C@@H](O)[C@@H]1O [malonyldaidzin, 6″-O-malonyldaidzin]",Decomposition efficiency of daidzin family in concentrated soybean protein,"pH1.6, heat treatment of enzyme: no, reaction time 0 h",not detected
same,Decomposition efficiency of daidzin family in concentrated soybean protein,"pH1.6, heat treatment of enzyme: no, reaction time 1 h",not detected
same,Decomposition efficiency of daidzin family in concentrated soybean protein,"pH1.6, heat treatment of enzyme: no, reaction time 3 h",not detected
same,Decomposition efficiency of daidzin family in concentrated soybean protein,"pH1.6, heat treatment of enzyme: no, reaction time 6 h",not detected
same,Decomposition efficiency of daidzin family in concentrated soybean protein,"pH1.6, heat treatment of enzyme: yes, reaction time 6 h",not detected
same,Decomposition efficiency of daidzin family in roasted soy flour,"pH2, heat treatment of enzyme no, reaction time 0 h",not detected
same,Decomposition efficiency of daidzin family in roasted soy flour,"pH2, heat treatment of enzyme no, reaction time 1 h",not detected
same,Decomposition efficiency of daidzin family in roasted soy flour,"pH2, heat treatment of enzyme no, reaction time 3 h",not detected
same,Decomposition efficiency of daidzin family in roasted soy flour,"pH2, heat treatment of enzyme no, reaction time 6 h",not detected
same,Decomposition efficiency of daidzin family in roasted soy flour,"pH2, heat treatment of enzyme yes, reaction time 6 h",not detected
same,Decomposition efficiency of daidzin family in soymilk,"pH2.3, heat treatment of enzyme: no, reaction time 0 h",55.1%
same,Decomposition efficiency of daidzin family in soymilk,"pH2.3, heat treatment of enzyme: no, reaction time 1 h",54.7%
same,Decomposition efficiency of daidzin family in soymilk,"pH2.3, heat treatment of enzyme: no, reaction time 3 h",51.1%
same,Decomposition efficiency of daidzin family in soymilk,"pH2.3, heat treatment of enzyme: no, reaction time 6 h",48.5%
same,Decomposition efficiency of daidzin family in soymilk,"pH2.3, heat treatment of enzyme: yes, reaction time 6 h",51.0%
same,Decomposition efficiency of daidzin family in defatted soybean,"pH2.6, heat treatment of enzyme: no, reaction time 0 h",41.0%
same,Decomposition efficiency of daidzin family in defatted soybean,"pH2.6, heat treatment of enzyme: no, reaction time 1 h",41.2%
same,Decomposition efficiency of daidzin family in defatted soybean,"pH2.6, heat treatment of enzyme: no, reaction time 3 h",41.8%
same,Decomposition efficiency of daidzin family in defatted soybean,"pH2.6, heat treatment of enzyme: no, reaction time 6 h",40.2%
same,Decomposition efficiency of daidzin family in defatted soybean,"pH2.6, heat treatment of enzyme: yes, reaction time 6 h",38.9%
same,Decomposition efficiency of daidzin family in concentrated soybean protein,"pH2.7, heat treatment of enzyme: no, reaction time 0 h",not detected
same,Decomposition efficiency of daidzin family in concentrated soybean protein,"pH2.7, heat treatment of enzyme: no, reaction time 1 h",not detected
same,Decomposition efficiency of daidzin family in concentrated soybean protein,"pH2.7, heat treatment of enzyme: no, reaction time 3 h",not detected
same,Decomposition efficiency of daidzin family in concentrated soybean protein,"pH2.7, heat treatment of enzyme: no, reaction time 6 h",not detected
same,Decomposition efficiency of daidzin family in concentrated soybean protein,"pH2.7, heat treatment of enzyme: yes, reaction time 6 h",not detected
same,Decomposition efficiency of daidzin family in roasted soy flour,"pH3, heat treatment of enzyme no, reaction time 0 h",not detected
same,Decomposition efficiency of daidzin family in roasted soy flour,"pH3, heat treatment of enzyme no, reaction time 1 h",not detected
same,Decomposition efficiency of daidzin family in roasted soy flour,"pH3, heat treatment of enzyme no, reaction time 3 h",not detected
same,Decomposition efficiency of daidzin family in roasted soy flour,"pH3, heat treatment of enzyme no, reaction time 6 h",not detected
same,Decomposition efficiency of daidzin family in roasted soy flour,"pH3, heat treatment of enzyme yes, reaction time 6 h",not detected
same,Decomposition efficiency of daidzin family in defatted soybean,"pH3.4, heat treatment of enzyme: no, reaction time 0 h",41.0%
same,Decomposition efficiency of daidzin family in defatted soybean,"pH3.4, heat treatment of enzyme: no, reaction time 1 h",39.4%
same,Decomposition efficiency of daidzin family in defatted soybean,"pH3.4, heat treatment of enzyme: no, reaction time 3 h",34.5%
same,Decomposition efficiency of daidzin family in defatted soybean,"pH3.4, heat treatment of enzyme: no, reaction time 6 h",29.0%
same,Decomposition efficiency of daidzin family in defatted soybean,"pH3.4, heat treatment of enzyme: yes, reaction time 6 h",37.1%
same,Decomposition efficiency of daidzin family in soymilk,"pH3.5, heat treatment of enzyme: no, reaction time 0 h",55.1%
same,Decomposition efficiency of daidzin family in soymilk,"pH3.5, heat treatment of enzyme: no, reaction time 1 h",35.6%
same,Decomposition efficiency of daidzin family in soymilk,"pH3.5, heat treatment of enzyme: no, reaction time 3 h",15.1%
same,Decomposition efficiency of daidzin family in soymilk,"pH3.5, heat treatment of enzyme: no, reaction time 6 h",7.4%
same,Decomposition efficiency of daidzin family in soymilk,"pH3.5, heat treatment of enzyme: yes, reaction time 6 h",49.1%
same,Decomposition efficiency of daidzin family in concentrated soybean protein,"pH3.7, heat treatment of enzyme: no, reaction time 0 h",not detected
same,Decomposition efficiency of daidzin family in concentrated soybean protein,"pH3.7, heat treatment of enzyme: no, reaction time 1 h",not detected
same,Decomposition efficiency of daidzin family in concentrated soybean protein,"pH3.7, heat treatment of enzyme: no, reaction time 3 h",not detected
same,Decomposition efficiency of daidzin family in concentrated soybean protein,"pH3.7, heat treatment of enzyme: no, reaction time 6 h",not detected
same,Decomposition efficiency of daidzin family in concentrated soybean protein,"pH3.7, heat treatment of enzyme: yes, reaction time 6 h",not detected
same,Decomposition efficiency of daidzin family in roasted soy flour,"pH4, heat treatment of enzyme no, reaction time 0 h",not detected
same,Decomposition efficiency of daidzin family in roasted soy flour,"pH4, heat treatment of enzyme no, reaction time 1 h",not detected
same,Decomposition efficiency of daidzin family in roasted soy flour,"pH4, heat treatment of enzyme no, reaction time 3 h",not detected
same,Decomposition efficiency of daidzin family in roasted soy flour,"pH4, heat treatment of enzyme no, reaction time 6 h",not detected
same,Decomposition efficiency of daidzin family in roasted soy flour,"pH4, heat treatment of enzyme yes, reaction time 6 h",not detected
same,Decomposition efficiency of daidzin family in defatted soybean,[1],40.7%
same,Decomposition efficiency of daidzin family in soymilk,[1],56.2%
same,Decomposition efficiency of daidzin family in defatted soybean,[2],40.5%
same,Decomposition efficiency of daidzin family in soymilk,[2],47.4%
same,Decomposition efficiency of daidzin family in defatted soybean,[3],36.7%
same,Decomposition efficiency of daidzin family in soymilk,[3],33.9%
same,Decomposition efficiency of daidzin family in defatted soybean,[4],30.5%
same,Decomposition efficiency of daidzin family in soymilk,[4],20.3%
same,Decomposition efficiency of daidzin family in defatted soybean,[5],38.4%
same,Decomposition efficiency of daidzin family in soymilk,[5],49.7%
